The experiment deals with A549. In words: Growth inhibition of human A549 cells after 48 hrs by SRB assay. Format: functional. The note with it: A549, 48 h.

A word on the GI50: it is the concentration that inhibits growth by half. A high value points to less potent growth inhibition. `C/C=C/C=C/C=C(\CO)[C@H](OCc1c(O)cccc1CCC)[C@H](C)O` came in with a GI50 of 25.6 µM.
Molecule `C/C=C/C=C/C=C(\C=O)C(OCc1c(O)cccc1CCC)C(C)=O` (stereo unspecified) returned a GI50 of 19.3 µM.
`C/C=C/C=C/C=C1\[C@H](OC)O[C@](C)(OC)[C@H]1OCc1c(O)cccc1CCC`: the concentration for 50% growth inhibition (GI50) stood at 16.2 µM.
As for `C/C=C/C=C/C=C1\CO[C@](C)(OC)[C@H]1OCc1c(O)cccc1CCC`, halving of growth (GI50) required 24.3 µM.
The same measure for `O=c1[nH]cc(F)c(=O)[nH]1` [FLUOROURACIL]: 4.55 µM; for `C[C@@H]1C[C@H]2O[C@@H]2/C=C\C=C\C(=O)Cc2c(Cl)c(O)cc(O)c2C(=O)O1` [RADICICOL]: 1.43 µM.

(Values after ChEMBL document CHEMBL3286123, “Aliphatic phenolic ethers from Trichobotrys effusa” (2014).)
